Read-outs that look alike come from different tables or passages of the source.
Tests used:
lipoxygenase gene = experiment: Northern blotting of lipoxygenase gene expression in sprayed cut leaves of rough lemon; assay type: in vivo; conditions: 0.5 mM sprayed on cut leaves, 2 to 48 hours
Method: Cut leaves of rough lemon were treated by spraying each of 0.5 mM L-psicose, L- & D-tagatose and D-sorbose thereon and were let stand for 2, 4, 6, 12, 24 and 48 hours at 24° C. under the dark condition in a moist chamber. Then, from the treated leaves, total RNA was extracted and the expression of genes of lipoxygenase and chitinase was analyzed by Northern blotting. The assays and analyses were repeated at least 3 times in all the treated plots, and equivalent results were obtained.

Vitis vinifera L. = assay type: in vivo
Method: Matured branches of “V. vinifera L.” grown outdoors were collected on December 25 during the dormant stage and were prepared to have one bud, and then, each cutting base was immersed in a 0.01, 0.1 or 1% aqueous solution of D-psicose for 24 hours. On the following day December 26, the same procedure as in 1 was carried out. In a control plot, distilled water was used, and to the liquid for treatment, Approach BI was not added. The judgment of bud flush was carried out in accordance with the method in 1. The measurement of bud flush was carried out on about a weekly basis.
In the survey of the bud flush rate, 9 cuttings were used for each plot and the procedure was repeated twice and an average was obtained.

[1] = system: tomato (Home Momotaro), sunny lettuce (Red Wave), morning glory (Tairin Zaki Kongo); experiment: Seed germination, short-time and continuous treatment (Experiment 2); assay type: in vivo; conditions: continuous treatment with 1%
Method: In order to clarify an effect of a short-time treatment, 50 seeds of Salsola komarovii, tomato (Home Momotaro) and sunny lettuce (Red Wave), and 20 seeds of morning glory (Tairin Zaki Kongo) were immersed in any of deionized water, 1% D-psicose, 1% D-allose and 1% L-galactose for 24 hours (25° C., dark), respectively, then, they were lightly washed with deionized water. Then, the seeds were sown in a dish with a diameter of 9 cm having a filter paper placed therein, and germinated under the same condition by poring 5 to 10 ml of deionized water therein. Further, for the comparison, a continuous treatment with 1% D-psicose was carried out in accordance with the same procedure.

[2] = system: Fusarium oxysporum (IFO 31213 strain); assay type: in vivo, tomato plant (variety: “House Momotaro”)
Method: By using a tomato plant and a strain of Fusarium oxysporum, which is a typical pathogenic bacterium of tomato, an effect of D-psicose during infection in a stage of raising seedlings thereof was examined.
To be more specific, seeds of a tomato plant (variety: “House Momotaro”) were subjected to an immersion treatment by immersing them in a 0.01% (w/v) D-psicose solution or a 0.007% (w/v) probenazole solution for 15 minutes while stirring slowly, followed by air-drying on sterile gauze, and then used as treated seeds. In the medium culture for raising seedlings (pete:pearlite:vermiculite=2:1:1), 0.01% (w/v) D-psicose or 0.007% (w/v) probenazole was mixed, and the soil was placed in black polypot plant containers with a diameter of 9 cm, and then, 4 seeds of the above treated seeds were sown in each pot. The seeds (20 seeds in total) were sown in 5 pots for each test plot. After sowing, the pots were placed in a growth chamber at 23° C. and 5,000 Lux (12-hour day length), and raising of seedlings was initiated. At 1 month and 2 months after the initiation of raising of seedlings, a suspension of mycelium of Fusarium oxysporum (IFO 31213 strain) was inoculated around the roots, whereby infection with Fusarium oxysporum was caused. After the inoculation of Fusarium oxysporum, the temperature was raised to 30° C., and cultivation was continued. At about 4 months after sowing, a survey was carried out with regard to the survival rate of plants, the conditions of browning of vascular bundles and roots, the stem diameter and the like.

[3] = system: eggplant plant (variety: “Senryo NiGo”); experiment: Spraying of sugar solution during eggplant cultivation; assay type: in vivo; conditions: 0.2% (w/v) sprayed weekly
Method: In the process of cultivation of eggplant, an effect of spraying D-psicose was examined.
An eggplant plant (variety: “Senryo NiGo”) was used in an experiment. Eggplant seedlings were transplanted for permanent planting to No. 7 unglazed pots filled with “Hana to Yasai no Tsuchi (garden soil for flowers and vegetables)” and a cultivation test was carried out in a vinyl house equipped with a heating device. As a fertilizer, 4 granules of IB compound fertilizer per pot were given around the roots, and irrigation was carried out by automatically feeding 500 ml of water twice a day. During the cultivation, on a weekly basis, water, a 0.2% (w/v) D-glucose solution or a 0.2 (w/v) D-psicose solution was sprayed onto the whole plant. As for the number of eggplant plants, 10 plants were used for each group, and the cultivation was carried out twice, i.e., in summer (from May 14 to Jul. 15, 2004) and in winter (from Nov. 4, 2004 to Feb. 24, 2005). A survey was carried out with regard to the growth conditions during the cultivation and yield of fruits.

[4] = system: tomato plant (variety: “Momotaro”); experiment: Spraying of sugar solution during tomato cultivation; assay type: in vivo; conditions: 0.2% (w/v) sprayed weekly
Method: In the process of cultivation of tomato, an effect of spraying D-psicose was examined.
A tomato plant (variety: “Momotaro”) was used in an experiment. Tomato seedlings were transplanted for permanent planting to No. 7 unglazed pots filled with “Hana to Yasai no Tsuchi (garden soil for flowers and vegetables)” and a cultivation test was carried out in a vinyl house equipped with a heating device. As a fertilizer, 4 granules of IB compound fertilizer per pot were given around the roots, and irrigation was carried out by automatically feeding 500 ml of water twice a day. During the cultivation, on a weekly basis, water, a 0.2% (w/v) D-glucose solution or a 0.2% (w/v) D-psicose solution was sprayed onto the whole plant. As for the number of tomato plants, 10 plants were used for each group, and the cultivation was carried out twice, i.e., in summer (from April 20 to Aug. 9, 2004) and in winter (from Nov. 4, 2004 to Mar. 14, 2005). A survey was carried out with regard to the growth conditions during the cultivation and yield of fruits.

[5] = system: tomato plant (variety: “House Momotaro”); experiment: Germination of D-psicose treated tomato seeds on agar without Fusarium oxysporum; assay type: in vivo; conditions: no Fusarium oxysporum; D-psicose seed 0.05%, medium non
Method: To be more specific, seeds of a tomato plant (variety: “House Momotaro”) were subjected to an immersion treatment by immersing them in a D-psicose solution at a concentration of from 0.01% (w/v) to 0.1% (w/v) for 15 minutes while stirring slowly, followed by air-drying on sterile gauze, and then used as treated seeds. […] At this time, test plots in which D-psicose was added to the agar medium at a concentration of from 0.01% (w/v) to 0.1% (w/v) were prepared. Then, the dishes were placed at 23° C. under the dark condition for 7 days to 10 days, and observation was carried out with regard to the elongation of shoot, the elongation of root, the shoot development rate, the infection state in root and the like.

SMILES: O=C(CO)[C@H](O)[C@H](O)[C@H](O)CO [D-psicose]
- induction of the expression of lipoxygenase gene, persistency (lipoxygenase gene): maintained for the longest time
- bud flush rate (Vitis vinifera L.; 0.01%): a similar pattern to that of the control plot
- bud flush rate (Vitis vinifera L.; 0.1%, throughout the whole period): the lowest value
- bud flush rate (Vitis vinifera L.; 1%, after the mid-February): the highest value
- bud flush rate compared with control plot (Vitis vinifera L.; all plots (0.01, 0.1, 1%), until early February): lower
- state of green branches of grapes in summer after treatment (Vitis vinifera L.; in vivo): withered and dead
- germination [1]: inhibited
- degree of chemical damage (yellow discoloration of leaves) ([2]; in vivo): smaller than that of the case of probenazole
- Vascular bundle browning ratio ([2]; seed immersion (0.01% D-psicose or 0.007% probenazole), no seed treatment 25%): 5%
- Stem diameter ([2]; seed immersion treatment): increased
- inhibitory effect on Fusarium wilt ([2]; seed immersion with D-psicose solution): equal to or more than that of probenazole
- significant effect of spraying on cultivation ([3]; summer): not observed
- growth (aerial part weight and underground part weight) ([3]; winter): promotion of the growth
- yield of fruits ([3]; winter): increase
- significant effect of spraying on cultivation ([4]; summer): not observed
- number of fruits ([4]; winter): increase
- yield of fruits ([4]; winter): increase
- Root length [5]: 7.4 cm
- Shoot length [5]: 6.7 cm
